Measurements from publication PMC10492782, “Exploiting the aggregation propensity of beta-lactamases to design inhibitors that induce enzyme misfolding” (Nature Communications, 2023).
Values joined by “and” are separate entries in the source; they are usually repeats but may differ in a detail not shown here. Identical values can stand only once.

Tests used:
[1] = Dynamic Light Scattering of peptide (hydrodynamic radius); type: physicochemical
Protocol: Fig. 4 Aggregation kinetics of TEM and SHV proteins and peptides. A Measurements of the hydrodynamic radius by Dynamic Light Scattering of 50 μM TEM3.2 in buffer alone, or in the presence of LPS or polyphosphate (PolyP). […] C Transmission Electron Micrograph of 50 μM TEM 3.2 incubated for 24 h in the same buffer as A with polyP, negatively stained with 2% (w/v) uranyl acetate. A single representative image is shown. […] Three replicates are shown for each condition. E Aggregation kinetics using pFTAA fluorescence emission of recombinantly purified TEM-1, in the presence of vehicle, or TEM 3.2 peptin, as well as peptin-only control. F Similar as in E, but using an off-target Pept-In, based on an APR sequence of beta-galactosidase. G Similar to E, but now using a previously published off-target Pept-In, based on an APR of HcaB. The plots are the results of a single experiment, all replicates are shown. Source data are provided as a Source Data file.
A DynaPro DLS plate reader instrument (Wyatt, Santa Barbara, CA, USA) equipped with an 830 nm laser source was used to determine the hydrodynamic radius (RH) of the peptide particles. […] The autocorrelation of scattered light intensity at a 32° angle was recorded for 5 s and averaged over 20 recordings to obtain a single data point. […]

[2] = test system: clinical isolates of E. coli containing TEM or SHV enzymes; assay: MIC of ampicillin with or without 30 µg/mL TEM3.2 in clinical isolates; type: cell-based, Escherichia coli; conditions: 30 μg/mL TEM3.2; 14 out of 16 isolates
Protocol: Determination of MIC values was performed using the broth microdilution method according to the EUCAST guideline, which was performed in 96-well polystyrene flat-bottom microtiter plates (BD Biosciences). Briefly, a single colony was inoculated into 5 mL Difco™ Mueller–Hinton Broth (BD Biosciences Ref 275730) and grown to the end-exponential growth phase in a shaking incubator at 37 °C. Cultures were subsequently diluted to a MacFarland (0.5 optical density) to reach 10^6 CFU/mL in fresh MHB medium. 50 µl of different concentrations of peptides ranging from 128 to 2 µg/mL were serially diluted to the sterile 96-well plate in MHB. 50 µL of the diluted bacteria in MHB were next pipetted into 96-well plates to reach the final volume of 100 µL. The bacteria grown with the maximum concentration of carrier and medium were considered positive and negative controls, respectively. The plates were statically incubated overnight at 37 °C to allow bacterial growth. OD was measured at 590 nm using a multipurpose ultraviolet–visible plate reader, and the absorbance of the bacterial growth was measured using an absorbance reader.

[3] = test system: uro-pathogenic E. coli strain (UPEC strain blaTEM-1); assay: Urinary tract infection model, bacterial load in bladder, kidney, ureter; type: in vivo, female C57BL/6JAX mice; design: bacterial load, Ureters / bacterial load, Bladder / bacterial load, Kindey: unit: CFU per mL of tissue extract; conditions: each column one mouse
Protocol: Fig. 7 Evaluation of in vivo use of peptides that induce the aggregation of TEM beta-lactamase. A Lysis of human erythrocytes (hemolysis) was assessed in the presence of the indicated concentrations of TEM3.2 for 2 h at 37 °C, and normalized to the value obtained with 1% of the detergent triton. […] B Cell viability using the CellTiter Blue assay of HeLa cells treated for 24 h with the indicated concentrations TEM 3.2 at 37 °C. […] DAPI (4’,6-diamidino-2-phenylindole) is blue, while CellMask is red. D Experimental workflow of the in vivo model used in this study. E–G Bacterial load of indicated organs of female C57BL/6JAX mice with a urinary tract infection with E. coli strain UZ_TEM104, treated with 30 mg/kg penicillin (oral) as well 10 mg/kg tazobactam (oral) or 10 mg/kg TEM3.2 via the indicated treatment route. IV intravenous, IP intraperitoneal, SC subcutaneously. The data shown is from a single experiment with 12 animals for each group. The result for each animal is shown as a dot. […] The statistically significant differences were determined using ANOVA, followed by Dunnett’s multiple comparison test. […] Source data are provided as a Source Data file.
We also performed a tolerability study using a dose escalation method by administering the peptide at 2, 5, 10, 15, and 20 mg/kg via different parenteral routes: intravenous (IV), intraperitoneal (IP), and subcutaneous (SC) in female C57BL/6JAX mice, aged 8–10 weeks (Suppl Table 4). […] Vehicle alone (0.9% NaCl) was also administered (IV). After 24 h the animals were sacrificed and the bacterial load in the bladder, kidney, and ureter was quantified by determining the number of colony-forming units (CFU) per mL of tissue extract (Fig. 7E–G).
To test the efficacy of the peptides, a urinary tract infection model was performed as described previously. Briefly, female C57BL/6Jax mice female mice were deprived of water for at least 1 h. Then, they were anesthetized by IP administration of the mixture of ketamine (Nimatek)/xylazine (XYL-M 2% BE-V170581). The bladder of the mouse was massaged with fingers and pushed down gently to expel the remaining urine. Mice were slowly inoculated urethrally with 50 µL of a bacterial suspension slowly over 5 s to avoid vesicoureteral reflux (10^8 CFU/ mouse) using a sterile catheter (pediatric intravenous-access cannula (GS391350)). The catheter was removed directly after inoculation. After surgery, the animals were visually monitored for full recovery. After 1 h post inoculation, all mice received Ampicillin (30 mg/kg_PO-orally) and at the same time 3 groups of animals received the peptides via different administration routes (10 mg/kg_IV—intravenous; IP—intraperitoneal or SC—sub-cutaneous) and the positive control groups received tazobactam (10 mg/kg, PO). The negative control groups received vehicle or saline (IV administration). 2 h post inoculation, all mice received a second injection with the same concentration of each treatment as explained above. Twenty-four hours post-infection, mice were sacrificed and organs (kidney, bladder, ureter) were washed with PBS and were homogenized (Thermo Savant FastPrep FP120 Homogenizer/24 s). The homogenized tissues were serially diluted and cultured on blood agar plates. The plates were incubated overnight at 37 °C, and the number of bacteria was measured by CFU value.

Ac-RLTAFLHNRRPRLTAFLRQRR-NH2 [TEM3.2]
solubility by Dynamic Light Scattering (in words) ([1]; 50 μM peptide in buffer alone): soluble in vitro
aggregation by Dynamic Light Scattering (in words) ([1]; 50 μM peptide in the presence of LPS or polyphosphate (PolyP)): aggregates readily when triggered by appropriate interactions
clinical isolates containing TEM or SHV sensitized to Ampicillin [2]: 87%
bacterial load, Bladder ([3]; group IP): 833.333 (2×) and 4533.33 and 14866.7 and 4066.67 and 2533.33 and 900 and 1 (2×) and 37733.3 and 300 (2×)
bacterial load, Kindey ([3]; group IP): 3566.67 and 133.333 and 27833.3 and 2666.67 and 1 (5×) and 4300 and 1700 and 2600
bacterial load, Ureters ([3]; group IP): 6333.33 and 33.3333 and 9933.33 and 233.333 and 1 (5×) and 1166.67 and 133.333 and 2500
bacterial load, Bladder ([3]; group IV): 9200 and 1 (3×) and 6366.67 and 4033.33 and 1500 and 566.667 and 2833.33 and 266.667 and 66.6667 and 1833.33
bacterial load, Kindey ([3]; group IV): 1333.33 and 50433.3 and 24133.3 and 22233.3 and 400 (2×) and 1 (2×) and 29 and 6466.67 and 333.333 and 1900
bacterial load, Ureters ([3]; group IV): 10766.7 and 11733.3 and 2766.67 and 2633.33 and 1 (4×) and 15700 and 9366.67 and 766.667 and 233.333
bacterial load, Bladder ([3]; group Sub): 20866.7 and 166.667 and 3866.67 and 32100 and 933.333 and 300 and 1 (2×) and 1600 and 1500 and 366.667 and 133.333
bacterial load, Kindey ([3]; group Sub): 18933.3 and 1 (6×) and 5766.67 and 66.6667 and 3300 and 4300 and 466.667
bacterial load, Ureters ([3]; group Sub): 5500 and 1 (6×) and 5866.67 and 13433.3 and 2800 and 333.333 and 900
